Results on 1 molecule are retold here after PMC10938434, “Design, Synthesis, and Biological Effect Studies of Novel Benzofuran–Thiazolylhydrazone Derivatives as Monoamine Oxidase Inhibitors” (ACS Omega, 2024).

One data set deals with T1, MAO-A enzyme (Homo sapiens, UniProt P21397).
T1 sequence (P21397 1-527): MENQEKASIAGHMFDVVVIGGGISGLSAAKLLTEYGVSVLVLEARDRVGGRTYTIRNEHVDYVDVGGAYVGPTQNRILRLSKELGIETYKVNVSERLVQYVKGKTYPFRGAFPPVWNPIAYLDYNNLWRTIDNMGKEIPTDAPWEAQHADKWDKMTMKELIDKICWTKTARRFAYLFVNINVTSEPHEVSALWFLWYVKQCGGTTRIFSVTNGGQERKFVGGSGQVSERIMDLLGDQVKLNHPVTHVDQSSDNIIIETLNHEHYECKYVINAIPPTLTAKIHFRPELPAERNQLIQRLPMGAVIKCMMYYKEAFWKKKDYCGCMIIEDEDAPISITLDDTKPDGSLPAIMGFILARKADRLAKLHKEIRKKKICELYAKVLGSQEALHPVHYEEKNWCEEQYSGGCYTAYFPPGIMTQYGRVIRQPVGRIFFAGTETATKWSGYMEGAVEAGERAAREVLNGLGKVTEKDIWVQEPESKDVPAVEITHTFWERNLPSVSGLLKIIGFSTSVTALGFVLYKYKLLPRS
The experiment in a line: MAO-A enzyme inhibition, fluorometric method. The data set is classed as biochemical. The source says: (§1) Inhibition profiles of the synthesized compounds on MAO enzymes were investigated by the fluorometric method.
(§2) In every step of the method, distilled water obtained from a Millipor, a Milli-Q Synthesis A10 purification device, was used. Care was taken in preparing all of the solutions used fresh and to consume them within 1 week after preparation. A BioTek-Precision Power robotic pipetting system was used in the processes of separating the solutions prepared in the enzyme inhibition study, applying the test compounds to 96-well plates, and adding the enzyme–substrate solutions.

Another data set concerns the target T2, MAO-B enzyme (Homo sapiens, UniProt P27338).
T2 sequence (P27338 1-520): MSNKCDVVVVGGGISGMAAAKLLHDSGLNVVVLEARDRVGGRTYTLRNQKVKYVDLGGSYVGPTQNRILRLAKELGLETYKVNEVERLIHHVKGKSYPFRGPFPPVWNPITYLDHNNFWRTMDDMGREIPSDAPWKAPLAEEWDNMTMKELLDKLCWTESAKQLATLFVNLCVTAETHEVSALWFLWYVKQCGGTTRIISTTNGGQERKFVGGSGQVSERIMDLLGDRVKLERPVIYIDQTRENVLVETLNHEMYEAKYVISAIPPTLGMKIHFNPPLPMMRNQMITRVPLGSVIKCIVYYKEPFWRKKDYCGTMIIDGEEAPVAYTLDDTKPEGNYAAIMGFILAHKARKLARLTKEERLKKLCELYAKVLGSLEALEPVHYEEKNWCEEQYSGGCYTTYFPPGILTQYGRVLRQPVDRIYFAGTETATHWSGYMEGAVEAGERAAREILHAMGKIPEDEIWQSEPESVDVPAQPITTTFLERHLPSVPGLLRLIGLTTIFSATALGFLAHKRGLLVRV
The data set is described as follows: MAO-B enzyme inhibition, fluorometric method. Format: biochemical.
Source text: as §1
as §2, with “solutions. The creation, monitoring, and spectrophotometric measurements of the enzyme protocol were performed on a BioTek-Synergy H1 microplate reader.[41],[42]” for “solutions.”

Data set [1] can be described thus: In vitro BBB permeability assay (PAMPA). The data set is classed as in vitro ADME.
The next data set can be described thus: Cytotoxicity test (MTT). Format: cell-based, mouse. As to conditions: mouse, NIH3T3 mouse embryo fibroblast cells, 24 h. On the procedure: (§3) Just as important as the effectiveness of a compound is its side effect profile. For this purpose, cytotoxic effect tests of compound 2l were carried out. NIH3T3 (healthy mouse fibroblast cells) was used as the healthy cell in the experimental procedure.
(§4) 3-(4,5-Dimethylthiazol-2-yl)-2,5-diphenyl tetrazolium bromide (MTT) stock solution (5 mg mL^–1) was prepared by dissolving in phosphate buffer (PBS). The viable cell count of NIH/3T3 (mouse healthy embryo fibroblast cells) cells grown in appropriate medium and culture medium was characterized, and each cell line was seeded in 96-well plates with 3000 cells in each well, and the cells were incubated for 24 h for their adhesion. […] At the end of the incubation, the medium in each well was removed and 100 μL of DMSO was added as a solvent and the absorbance values were read in an enzyme-linked immunosorbent assay (ELISA) device (Bio Tek Cytation3 multimode microplate reader) at a wavelength of 540 nm, with eight wells in each group. […] The obtained absorbance values give the metabolic activities of the cells, and these values are associated with the number of living cells. The results are determined as % inhibition values according to the formula given, and IC50 values are calculated from these values by using the Excel program.[52]−[54]

The subject of data set [2] is NIH3T3 (healthy mouse fibroblast cells). The data set is described as follows: Cytotoxicity test (MTT). The data set is classed as cell-based. On the procedure: as §3, §4

SMILES strings stand for the structures. Where “and” joins values, the source holds several entries; their conditions need not be identical. Identical values can stand only once.

As for `Clc1ccc(-c2csc(NN=Cc3cc4ccccc4o3)n2)c(Cl)c1` [2l, 2-(2-(Benzofuran-2-ylmethylene)hydrazinyl)-4-(2,4-dichlorophenyl)thiazole], the IC50 (as a rule, the point on the concentration scale where inhibition reaches its midpoint) at MAO-A enzyme (10^–3–10^–9 M concentrations) is 73 nM and 70 nM; on MAO-B enzyme, 750 ± 30 nM. In addition, at MAO-A enzyme (MAO isoform preferentially inhibited), the selectivity result is given as “MAO-A”. Also, at MAO-A enzyme (SI = IC50MAO-B/IC50 MAO-A), the “SI* selectivity index” value is over 10.30. For the same molecule, the inhibition (usually the percentage by which the read-out fell short of the control) at 1000 µM stood at 94 ± 1.65% at MAO-A enzyme (read-out: MAO-A % inhibition 10^–3 M) and 86.6 ± 1.29% on MAO-B enzyme (10^–3 M). The inhibition at 100 µM on MAO-A enzyme (read-out: MAO-A % inhibition 10^–4 M) amounted to 91.4 ± 1.36%. For the same molecule, the “BBB permeability (in words)” value in data set [1] was “high BBB permeability”. Further, the IC50 at 24 h in the data set “Cytotoxicity test (MTT)” is over 100 µM. Also, in data set [2], the cytotoxic effect result is listed as “nontoxic”.
